Source: the supplement of paper PMC10331698
± gives the standard deviation of the averaged measurements.

How the values were obtained:
Test in all cases: level (log10 ratio to DMSO vehicle control); higher = higher biomarker level / cell amount than vehicle control
[1] = compound: FC(F)(F)C(F)(F)C(F)(F)C(F)(F)C(F)(F)C(F)(F)C(F)(F)I [1-Iodopentadecafluoroheptane]; conditions: in DMSO
Experimental: (§1)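 BioMAP Diversity Plus panel of 12 human primary cell co-culture systems (3C, 4H, LPS, SAg, BT, BF4T, BE3C, CASM3C, HDF3CGF, KF3CT, MyoF, Mphg). Compounds were added 1 h before stimulation and left for 24 h (MyoF 48 h; BT 72 h for soluble read-outs or 6 d for IgG). Biomarkers were read by ELISA, cytotoxicity by SRB, PBMC viability and proliferation by Alamar Blue. Each well value was divided by the mean of 8 DMSO control wells on the same plate and log10 transformed; duplicate blinded samples were tested at 4 concentrations.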

[2] = compound: FC(F)(F)C(F)(F)C(F)(F)CC1CO1 [1H,1H-Heptafluorobutyl epoxide]; conditions: in DMSO
Experimental: as §1

[3] = compound: O=C(O)C=CC(F)(C(F)(F)F)C(F)(F)F [3-(Perfluoroisopropyl)-2-propenoic acid]; conditions: in DMSO
Experimental: as §1

[4] = compound: FC(F)(F)C(F)(F)CNCC(F)(F)C(F)(F)F [Bis(1H,1H-perfluoropropyl)amine]; conditions: in DMSO
Experimental: as §1

[5] = compound: C=CC(=O)OCC(F)(F)C(F)(F)C(F)(F)COC(=O)C=C [1H,1H,5H,5H-Perfluoro-1,5-pentanediol diacrylate]; conditions: 6700 nM; in DMSO
Experimental: as §1

[6] = compound: C=C(C)C(=O)OCCC(F)(F)C(F)(F)C(F)(F)C(F)(F)C(F)(F)C(F)(F)F [6:2 Fluorotelomer methacrylate]; conditions: in DMSO
Experimental: as §1

Row | Test System | level (log10) ([1]; 6700 nM) | level (log10) ([1]; 20000 nM) | level (log10) ([2]; 6700 nM) | level (log10) ([2]; 20000 nM) | level (log10) ([2]; 60000 nM) | level (log10) ([3]; 6700 nM) | level (log10) ([3]; 20000 nM) | level (log10) ([3]; 60000 nM) | level (log10) ([4]; 6700 nM) | level (log10) ([4]; 20000 nM) | level (log10) ([4]; 60000 nM) | level (log10) [5] | level (log10) ([6]; 6700 nM) | level (log10) ([6]; 20000 nM) | level (log10) ([6]; 60000 nM)
1 | BF4T:CD106/VCAM-1 | -0.005 ± 0.011 | -0.031 ± 0.0028 | -0.0055 ± 0.015 | -0.015 ± 0.017 | -0.021 ± 0.0071 | -0.0095 ± 0.04 | -0.0275 ± 0.025 | 0.0225 ± 0.019 | -0.034 ± 0.0057 | -0.034 ± 0.017 | 0.008 ± 0.069 | -0.0685 ± 0.026 | 0.008 ± 0.079 | 0.039 | -0.0215 ± 0.028
2 | SAg:CXCL9/MIG | 0.006 ± 0.0071 | 0.02 ± 0.0042 | -0.0155 ± 0.0078 | -0.0165 ± 0.015 | -0.0065 ± 0.018 | -0.0105 ± 0.025 | 0.013 | -0.006 ± 0.0085 | -0.0045 ± 0.0021 | -0.0045 ± 0.0035 | 0.0075 ± 0.012 | 0.0025 ± 0.0078 | 0.007 ± 0.023 | 0.0085 ± 0.011 | 0.012 ± 0.025
3 | BF4T:CD90 | 0.001 ± 0.016 | -0.0025 ± 0.0021 | -0.026 ± 0.014 | -0.0175 ± 0.0092 | -0.0125 ± 0.0078 | -0.0005 ± 0.013 | -0.0105 ± 0.0035 | 0.018 ± 0.0028 | -0.01 ± 0.0085 | -0.004 ± 0.0071 | 0.011 ± 0.018 | -0.0195 ± 0.018 | -0.004 ± 0.0057 | -0.007 ± 0.0057 | -0.0065 ± 0.0021
4 | BF4T:CCL26/Eotaxin-3 | -0.04 ± 0.048 | -0.0305 ± 0.042 | -0.001 ± 0.013 | 0.0095 ± 0.0035 | 0.01 ± 0.011 | -0.0085 ± 0.057 | -0.005 ± 0.013 | 0.0165 ± 0.029 | -0.0275 ± 0.026 | -0.0245 ± 0.0021 | -0.0055 ± 0.053 | -0.04 ± 0.0028 | 0.0285 ± 0.025 | -0.001 ± 0.11 | 0.041 ± 0.055
5 | BE3C:EGFR | 0.014 ± 0.0071 | 0.0185 ± 0.026 | -0.0025 ± 0.0064 | -0.0045 ± 0.0064 | -0.018 ± 0.0042 | 0.0005 ± 0.016 | 0.0085 ± 0.00071 | 0.004 ± 0.0014 | -0.011 ± 0.014 | -0.008 ± 0.0057 | 0.0065 ± 0.021 | -0.01 | 0.0045 ± 0.052 | 0.0085 ± 0.043 | 0.0135 ± 0.049
6 | BT:sIL-17A | -0.213 ± 0.3 | -0.112 ± 0.31 | -0.0185 ± 0.022 | 0.0025 ± 0.033 | -0.033 ± 0.067 | -0.01 ± 0.047 | 0.024 ± 0.14 | -0.124 ± 0.13 | -0.0465 ± 0.067 | -0.075 ± 0.13 | -0.069 ± 0.25 | -1.14 ± 0.22 | -0.058 ± 0.16 | 0.028 ± 0.099 | -0.078 ± 0.04
7 | SAg:CD69 | -0.028 ± 0.0071 | -0.039 ± 0.0014 | 0.0115 ± 0.00071 | 0.009 ± 0.0014 | 0 ± 0.031 | -0.0105 ± 0.0035 | 0.013 ± 0.0085 | 0.002 ± 0.0071 | 0.001 ± 0.0085 | -0.0075 ± 0.018 | -0.0125 ± 0.00071 | -0.181 ± 0.073 | -0.001 ± 0.0014 | -0.0035 ± 0.00071 | -0.013 ± 0.024
8 | SAg:SRB | -0.007 ± 0.0042 | 0.0025 ± 0.0021 | 0.0065 ± 0.026 | -0.0065 ± 0.0092 | -0.0115 ± 0.011 | -0.001 ± 0.0042 | -0.007 ± 0.025 | -0.0065 ± 0.028 | -0.012 ± 0.0028 | -0.001 ± 0.017 | 0.0035 ± 0.0035 | -0.0015 ± 0.012 | 0 ± 0.0057 | -0.003 ± 0.0042 | -0.005 ± 0.0071
9 | LPS:CD62E/E-Selectin | -0.0155 ± 0.005 | -0.002 ± 0.0071 | 0.0105 ± 0.012 | -0.009 ± 0.016 | 0.0035 ± 0.036 | 0.0055 ± 0.015 | -0.013 ± 0.0042 | 0.0165 ± 0.0035 | 0.0005 ± 0.032 | -0.012 ± 0.0057 | 0.0125 ± 0.00071 | -0.0265 ± 0.022 | 0.0095 ± 0.018 | 0.003 ± 0.018 | 0.0335 ± 0.0064
10 | BE3C:CXCL10/IP-10 | 0.01 ± 0.02 | 0.0195 ± 0.035 | -0.013 ± 0.0071 | -0.0065 ± 0.0092 | -0.012 ± 0.0042 | 0.0055 ± 0.0035 | 0.004 ± 0.0099 | 0.009 ± 0.0014 | -0.017 ± 0.035 | -0.0075 ± 0.028 | -0.001 ± 0.0028 | -0.0215 ± 0.0035 | 0.0275 ± 0.091 | 0.021 ± 0.068 | 0.034 ± 0.078
